{"source": "paper PMC9945865", "about": "“Anticancer evaluation of new organometallic ruthenium(II) flavone complexes” (RSC Medicinal Chemistry, 2022)", "key": {"[1]": {"tested_on": "c-myc i-motif DNA", "experiment": "I-motif DNA binding, UV-visible absorbance", "parameters": "species or system human", "details": "DNA : flavonoid 2 μM : 2 μM, pH 5.5, 25 °C", "excerpt": "(§1) I-motifs are four stranded antiparallel cytosine rich DNA sequences capable of forming at telomere and promotor regions of genomic DNA.[41,42] […] Due to the presence of potential i-motif forming sequences in 69% of promoter regions in human oncogenes, they are postulated to play a key role in oncogene expression regulation.[44] VEGF and c-myc i-motif sequences are prevalent in oncogene promotor regions in many cancers including breast cancer and as such their ligands have potential anticancer roles.[45] The natural flavonol, fisetin, is reported to specifically bind to VEGF i-motif DNA and regulate its function by stabilizing its hairpin structure.[31] […] In continuation of our investigation of the effects of Ru metal complexation on the different biological activities of flavonoids, interactions with VEGF and c-myc i-motif DNA were studied using UV-vis spectroscopic techniques. […] However, 2Ru's addition led to a 1 nm hypsochromic shift of VEGF i-motif absorbance maximum from 272 to 271 nm. On the other hand, addition of the 4-oxo flavone (1) and its Ru complex (1Ru) led to minor changes in λmax of both sequences that was hypochromic (5% and 3%) with VEGF and hyperchromic (2% and 5%) in case of c-myc (Fig. 8).\n(§2) UV-visible absorbance measurements and DNA UV melting studies were performed on a Cary 300 C (Varian USA) UV-visible spectrophotometer. VEGF and c-myc i-motif DNA (5′-3′ sequences ([…]) and ([…]), respectively) were purchased from Sigma-Aldrich (Gillingham, UK) and used without further purification. Na cacodylate buffer (20 mM, pH 5.5) was used for both i-motifs. DNA concentrations were determined by measuring the absorbance at 260 nm after melting using the molar extinction coefficient supplied by the manufacturer. VEGF and c-myc i-motifs were prepared for experiments by diluting with buffer solution, annealed with or without the flavonoid at 95 °C for 5 min then gently cooled to room temperature. The stock solutions of the test compounds (20 mM) were prepared in 100% sterile DMSO. These stocks were then appropriately diluted with HPLC grade water and DMSO levels were maintained below 0.1% in the test concentrations.\n(§3) UV-visible absorbance measurements and UV melting studies of either free i-motifs (VEGF or c-myc), free flavone (1, 1Ru, 2 or 2Ru) or both i-motif DNA and flavone (2 μM: 2 μM) were recorded using 1.0 cm matched quartz cuvettes. First spectra were recorded in the range of 200–500 nm to determine the relevant wavelength range were no peaks were observed above 320 nm. […] UV-visible absorbance was measured at 25 °C while melting curves were collected at a heating rate of 1 °C min^−1 from 20 to 90 °C. Tm was calculated by non-linear fitting of the sigmoidal curve obtained at 295 nm."}, "[2]": {"tested_on": "VEGF i-motif DNA", "experiment": "I-motif DNA binding, UV-visible absorbance", "parameters": "species or system human", "excerpt": "as §1, §2, §3"}, "[3]": {"tested_on": "HUVECs", "experiment": "Matrigel endothelial cell tube formation assay (VEGF-mediated)", "assay_type": "cell-based, human", "details": "12 h; for tube formation inhibition activity: 1 μM", "procedure": "In our recent study,[30] the 4′-chlorophenylflavone derivatives 1 and 2 have shown promising antiangiogenic activities in vitro. Herein, the effect of complexation with a ruthenium(II) metal ligand on the antiangiogenic activity of 1 and 2 was evaluated using the Matrigel tube formation assay that assesses many of the main steps involved in the process of angiogenesis. Inhibition of VEGF-mediated tube formation by the tested substrates was observed after 12 h of treatment on HUVECs at 1 μM and 10 μM concentrations. Luteolin is a natural flavone well known for its high antiangiogenic activity both in vitro and in vivo[34] and as such was used in this study as a reference standard. In accordance with reported data, luteolin inhibited the measured elements of tube formation by 30% compared to the positive control.[34,35] […] The ability of Ru(II) organometallic derivatives to target tumour metastasis has been widely reported both in vitro and in vivo.[3,6,9,36] Thus, based on the preliminary antiangiogenic trends observed for our target Ru(II) complexes (1Ru and 2Ru) and their parent flavones (1 and 2), we further investigated their antiproliferative and antimetastatic potential on the estrogen receptor positive breast cancer cell line (MCF-7) and the more aggressive triple negative cell line (MDA-MB-231).\nHUVECs were cultured until confluency and then serum starved (0.1% serum) for 24 h. The tube formation assay followed the reported assay.[56] Briefly, 96 well plates were coated with 50 μL of Corning™ Matrigel™ GFR Membrane Matrix at 4 °C and incubated at 37 °C for 1–2 h to solidify. Serum starved HUVECs were seeded on the solidified Matrigel at 3 × 10^5 cells per mL and treated with medium containing VEGF (10 ng mL^−1) and either luteolin or one of the synthesised derivatives (at 1 μM or 10 μM). Plates were incubated for 12 h and photos covering the whole well area were taken using 4× magnification power of an inverted light microscope. Number of junctions, number and length of segments and master segments were quantified from the taken Images via the Angiogenesis Analyzer plugin[57] in ImageJ software.[58] […] Data was represented as a ratio to the positive control (VEGF enriched)."}, "[4]": {"tested_on": "HUVEC cells", "experiment": "Cytotoxicity on HUVECs, trypan blue exclusion assay", "assay_type": "cell-based, human", "details": "40 μM, 24 h, % of control, p > 0.05 vs control", "procedure": "The biocompatibility of flavones (1 and 2)[30] alongside their ruthenium(II) metal complexes (1Ru and 2Ru) with HUVEC cells was established using the trypan blue exclusion assay. A concentration four times higher (i.e. 40 μM) than the highest concentration used for the tube formation antiangiogenic evaluation study (i.e. 10 μM) was selected for this cytotoxic assay.\nCytotoxic activity of treatments on HUVECs using trypan blue exclusion assay.[55] HUVECs were seeded in 96 well plates at 1 × 10^5 cells per mL and cultured for 24 h. Cells were then treated with either luteolin, the synthesised derivatives at 40 μM or culture medium (control) for 24 h. After 24 h, solutions were removed and cells washed with 100 μL PBS followed by the addition of 50 μL trypsin–EDTA and incubation for 5 min to detach the cells. 50 μL of EGM-2 media was added to the wells. 50 μL aliquots of the cell suspension were mixed with equal volume of trypan blue (TB) 0.2% v/v (prepared from 0.4% TB diluted with PBS) then the cells were counted using a haemocytometer. Number of viable and dead cells were counted manually and % cell viability of each treatment was expressed as % of control using the equation:% Cell Viability = (Cell viability in treatment/Cell viability in control) × 100where cell viability was calculated as follows:Cell Viability = Number of viable cells/Total number of cells(viable and dead)."}, "[5]": {"details": "DNA : flavonoid 2 μM : 2 μM, pH 5.5, 25 °C"}}}
{"smiles": "Cc1ccc(C(C)C)cc1.O=c1cc(-c2ccc(Cl)cc2)oc2cc(O)cc([O-])c12.[Cl-].[Ru+2]", "note": "[1Ru, chlorido [(5-oxo-κO)-7-hydroxy-2-(4′-chlorophenyl)-4H-chromen-4-onato-κO] (η^6-p-cymene)ruthenium(II)]", "values": [{"measurement": "hyperchromic shift (increase) at absorbance maximum λmax", "setting": "[1]", "value": 5, "unit": "%"}, {"measurement": "hypochromic change at λmax", "setting": "[2]; [5]", "value": 3, "unit": "%"}, {"measurement": "tube formation inhibition activity", "setting": "[3]", "value": "total loss of their parents' tube formation inhibition activity"}, {"measurement": "overall tube formation inhibition", "setting": "[3]; 10 μM, insignificant (p > 0.05)", "value": 22, "unit": "%"}, {"measurement": "Cell viability of HUVECs", "setting": "[4]", "value": "~100", "unit": "%"}]}
{"smiles": "Cc1ccc(C(C)C)cc1.[Cl-].[O-]c1cc(O)cc2oc(-c3ccc(Cl)cc3)cc(=S)c12.[Ru+2]", "note": "[2Ru, chlorido [(5-oxo-κO)-7-hydroxy-2-(4′-chlorophenyl)-4H-chromen-4-thionato-κO] (η^6-p-cymene)ruthenium(II)]", "values": [{"measurement": "hyperchromic shift (increase) at absorbance maximum λmax", "setting": "[1]", "value": 8, "unit": "%"}, {"measurement": "hyperchromic shift (increase) at absorbance maximum λmax", "setting": "[2]; [5]", "value": 2, "unit": "%"}, {"measurement": "hypsochromic shift of absorbance maximum", "setting": "[2]; from 272 to 271 nm, 1 : 1 ratio", "value": 1, "unit": "nm"}, {"measurement": "tube formation inhibition activity", "setting": "[3]", "value": "total loss of their parents' tube formation inhibition activity"}, {"measurement": "reduction in the number of junctions", "setting": "[3]; 10 μM, p < 0.01", "value": 40, "unit": "%"}, {"measurement": "reduction in number and length of master segments", "setting": "[3]; 10 μM, p < 0.05", "value": 35, "unit": "%"}, {"measurement": "Cell viability of HUVECs", "setting": "[4]", "value": "~100", "unit": "%"}]}
